Where two headings read alike, the source gives them in different places.
Columns and labels:
HCV = experiment: Anti-HCV activity in Huh-Luc/neo cell line, luciferase activity after 3-day treatment; type: cell-based, Hepatitis C virus; conditions: Hepatitis C virus, 72 h, Huh-Luc/neo cells, 3 days; for EC50: given as a bound only, read-out: Antiviral Activities (EC50, μM) HCV
Protocol: (§1) The antiviral assays for HBV, (Doong et al., 1991, Proc. Natl. Acad. Sci. U.S.A. 88:8495-8499) HSV-1, (Bastow et al., 1983, Antimicrob. Agents Chemother. 23: 914-917) HSV-2, (Bastow et al., 1983, Antimicrob. Agents Chemother. 23:914-917) EBV, (Yao et al., 1993, Antimicrob. Agents Chemother. 37:1420-1425), CMV (Andreoni et al., 2002, J. Med. Virol. 67:33-40) and HIV (Mellors et al., 1992, Mol. Pharmacol. 41: 446-451) were performed according to the previously reported procedures. Anti-HCV activities were tested in Huh-Luc/neo cell line. Cells were seeded into 48-well plates and grown until confluent. Different concentrations of drugs were added into media (DMEM, 10% dFBS) and incubated for 3 days. At the end of 3-day treatment, medium were removed and 50 μl of Passive lysis buffer (Promega) were added. Cell lysate was shaken at room temperature for 15 min. 30 μl/well of cell lysate was transferred to another 96-well plate, 100 μl/well of luciferase activity assay substrate was added into plate and read by a luminometer (Amersham) immediately.

EBV = experiment: In vitro antiviral assay for EBV; type: cell-based, Epstein-Barr Virus; conditions: human gammaherpesvirus 4, read-out: Antiviral Activities (EC50, μM) EBV
Protocol: as §1

[1] = Cell cytotoxicity assay on MT-2 cells; type: cell-based; conditions: human, read-out: Cytotoxity (ID50, μM) MT-2
Protocol: (§2) Cytotoxicities of test compounds on MT-2 (Mellors et al., 1992 Mol. Pharmacol. 41:446-451) and CEM (Grove et al., 1995, Cancer Res. 55:3008-3011) cells were determined according to the previously reported procedures. Hepg2 cells were seeded at a density of 10^4 cells/ml/well in 24-well plates and cultured in MEME supplemented with 10% FBS at 37° C. and 5% CO2. Each test compound at different concentrations was added on the second day of the culture and the cells were incubated for another 3 days. At the end of the incubation period, the medium was removed and 0.5 ml of 0.5% methylene blue in 50% ethanol (v/v) was added to each well and set at room temperature for 30-60 minutes. The methylene blue was removed; the plates were washed with water and allowed to air dry. Once dry, 1% sarcosyl was added to dissolve the stained cell layer. The absorbance at 595 nm was measured with a microplate reader (Molecular Devices Corp. Sunnyvale, Calif.). The cytotoxicity to CEM cell was calculated as described previously (Grove et al., 1995, Cancer Res. 55 (14): 3008-3011).

[2] = Cell cytotoxicity assay on CEM cells; type: cell-based; conditions: human, read-out: Cytotoxity (ID50, μM) CEM
Protocol: as §2

HBV = experiment: In vitro antiviral assay for HBV (Table 1); type: cell-based, Hepatitis B virus; conditions: Hepatitis B virus, read-out: Antiviral Activities (EC50, μM) HBV
Protocol: as §1

HSV-1 = experiment: In vitro antiviral assay for HSV-1; type: cell-based, Herpes Simplex Virus 1
Protocol: as §1

HSV-2 = experiment: In vitro antiviral assay for HSV-2; type: cell-based, Herpes Simplex Virus 2
Protocol: as §1

HIV = experiment: In vitro antiviral assay for HIV; type: cell-based, human immunodeficiency virus; conditions: Human immunodeficiency virus 1, read-out: Antiviral Activities (EC50, μM) HIV, in vitro; (T) after a value means toxic
Protocol: as §1

[3] = Human alphaherpesvirus 1, read-out: Antiviral Activities (EC50, μM) HSV-1
[4] = Human alphaherpesvirus 2, read-out: Antiviral Activities (EC50, μM) HSV-2
[5] = read-out: HCV percent of inhibition

Compound	EC50 (HCV) [µM]	EC50 (EBV) [µM]	IC50 [1] [µM]	IC50 [2] [µM]	EC50 (HBV) [µM]	EC50 (HSV-1; [3]) [µM]	EC50 (HSV-2; [4]) [µM]	EC50 (HIV) [µM]	EC50 (HSV-1; in vitro, read-out: Antiviral Activities (EC50, μM) HSV-1) [µM]	EC50 (HSV-2; in vitro, read-out: Antiviral Activities (EC50, μM) HSV-2) [µM]	inhibition at 10 µM (HCV; [5]) [%]	inhibition at 1 µM (HCV; at 1 μM, read-out: HCV percent of inhibition) [%]
CN(C)C(=O)c1cc2ccc3c(c2c(-c2ccc4c(c2)OCO4)c1C(=O)O)OCO3 [Compound 14, 9-Benzo[1,3]dioxol-5-yl-7-dimethylcarbamoyl-naphtho[1,2-d][1,3]dioxole-8-carboxylic acid]	> 10	> 20	70	76	> 10	> 50	> 50	> 70				
Nc1nc2c(ncn2COCCO)c(=O)[nH]1 [ACV, reference compound]									8	21		
CC(=O)NN1Cc2cc3ccc4c(c3c(-c3ccc5c(c3)OCO5)c2C1=O)OCO4 [Compound 27, N-(10-Benzo[1,3]dioxol-5-yl-9-oxo-7,9-dihydro-1,3-dioxa-8-aza-dicyclopenta[a,g]naphthalen-8-yl)-acetamide]		> 20	25	32	> 20	17	40	> 25			25	
O=C1NCc2c1cc1ccc3c(c1c2-c1ccc2c(c1)OCO2)OCO3 [Compound 18, 10-Benzo[1,3]dioxol-5-yl-8,9-dihydro-1,3-dioxa-8-aza-dicyclopenta[a,g]naphthalen-7-one]		11	4	4.5	0.08	0.29	0.16	> 4				55
O=C1c2cc3ccc4c(c3c(-c3ccc5c(c3)OCO5)c2CN1CCCOCc1ccccc1)OCO4 [Compound 20, 10-Benzo[1,3]dioxol-5-yl-8-(3-benzyloxy-propyl)-8,9-dihydro-1,3-dioxa-8-aza-dicyclopenta[a,g]naphthalen-7-one]		> 20	28	67	> 20	13	> 20	> 28			85	
NC(=O)c1cc2ccc3c(c2c(-c2ccc4c(c2)OCO4)c1C(N)=O)OCO3 [Compound 36, 9-Benzo[1,3]dioxol-5-yl-naphtho[1,2-d][1,3]dioxole-7,8-dicarboxylic acid diamide]	> 10	> 20	> 100	> 100	> 20	> 50	> 50	> 100				
O=c1[nH][nH]c(=O)c2c(-c3ccc4c(c3)OCO4)c3c4c(ccc3cc12)OCO4 [Compound 28, 11-Benzo[1,3]dioxol-5-yl-8,9-dihydro-1,3-dioxa-8,9-diaza-cyclopenta[a]anthracene-7,10-dione]		> 25	16	50	0.03	1.4	1.4				74	
Cc1c(C(=O)OCCCO)cc2ccc3c(c2c1-c1ccc2c(c1)OCO2)OCO3 [Compound 7, 9-Benzo[1,3]dioxol-5-yl-8-methyl-naphtho[1,2-d][1,3]dioxole-7-carboxylic acid 3-hydroxy-propyl ester]	> 10	> 15	10	46	> 23	> 25	> 25	> 10				
O=C(OCc1ccccc1)c1cc2ccc3c(c2c(-c2ccc4c(c2)OCO4)c1COCc1ccccc1)OCO3 [Compound 4, 9-Benzo[1,3]dioxol-5-yl-8-benzyloxymethyl-naphtho[1,2-d][1,3]-dioxole-7-carboxylic acid benzyl ester]		> 20	> 100	> 50	> 10	> 50	> 50	> 100			71	
Nc1ccn([C@H]2CC[C@@H](CO)O2)c(=O)n1 [ddC, 2′,3′-Dideoxycytidine, reference compound]			70	5				0.8				

Source: patent US7754718B2 (priority 2004, dated 2010)
